Measured values published in patent US20160115540A1, “PRODRUGS AND DRUGS” (Biogen MA Inc., priority 2013, published 2016).
Where a name gives a salt, the structure may show the parent alone.

System: jejunum
Assay: Transcriptional profiling on Affymetrix GeneChips, single dose, naïve mice: jejunum
Type: in vivo, C57BL/6 mice
Description: Treated mice were sacrificed at 2, 7, or 12 hours. Tissues (liver, spleen, kidney, jejunum, cortex, hippocampus, striatum and whole blood) were collected and analyzed by transcriptional profiling on mouse Affymetrix GeneChips.
Tissues (liver, spleen, kidney, jejunum, cortex, hippocampus, striatum and whole blood) were collected and analyzed by transcriptional profiling on mouse Affymetrix GeneChips.
Animals were exposed to CO2 and whole blood collected via cardiac puncture. Two 100 μl aliquots of whole blood were collected in 1.5 mL microcentrifuge tubes and snap frozen in liquid nitrogen. Peripheral (liver, spleen, kidney and jejunum) and CNS brain (cerebellum, hippocampus, striatum and cortex) tissues were harvested and snap frozen in liquid nitrogen, with special care taken to collect tissues of similar size and from the same location. All samples were stored at −80° C. until RNA extraction was conducted.
For RNA preparation, frozen tissues were placed in 2 mL RNAse-free 96-well blocks with 1.5 mL QIAzol Lysis Reagent (QIAgen) and a 3.2 mm stainless steel bead (BioSpec Products, Bartlesville, Okla.). Tissues were disrupted for four cycles of 45 seconds in a Mini-Beadbeater (Biospec Products). RNA was extracted in chloroform and the aqueous phase was mixed with an equal volume of 70% ethanol. Extracted RNA was applied to RNeasy 96 plates and purified by the spin method according to the manufacturer's protocol (RNeasy 96 Universal Tissue Protocol, QIAgen, Hilden Germany).
Automated sample amplifications and biotin labelings were carried out using the NuGEN Ovation RNA Amplification system V2 (Cat #3100), Ovation WB reagent (Cat #1300) and Encore Biotin module (Cat #4200) (NuGEN Technologies, Inc, San Carlos, Calif.) according to manufacturer's recommendations using an Arrayplex automated liquid handler (Beckman Coulter, Indianapolis, Ind.). Two micrograms of biotin labeled sscDNA probe were hybridized to Affymetrix GeneChip Affymetrix HT_MG-430_PM plate arrays with modified conditions as described in Allaire et al. Washing and staining of the hybridized arrays were completed as described in the GeneChip Expression analysis technical manual for HT plate arrays using the Genechip® Array Station (Affymetrix, Santa Clara, Calif.) with modifications as described in Allaire et al. The processed GeneChip® plate arrays were scanned using GeneTitan scanner (Affymetrix, Santa Clara, Calif.).
Affymetrix scans were subject to quality control (QC) measures. These tests included a visual inspection of the distribution of raw signal intensities and an assessment of RNA degradation, relative log expression (RLE), and normalized unsealed standard error (NUSE). All sample scans that passed these QC metrics were included in the analysis.
All CEL files were subjected to GC-content-based Robust Multi-array Average (GCRMA) normalization (version 2.20.0) (Irizarry R A, et al. Nucleic Acids Res 2003; 31:e15; Li C, et al. Genome Biol 2001; 2:[…]0032). Expression levels were log (base 2) transformed.
All calculations and analyses were carried out using R (version 2.11.1) and Bioconductor computational tools (Gentleman R. Springer Science+Business Media 2005).

[1] = 100DMF-vs-Veh or 100MMF-vs-Veh, 12 h

COC(=O)/C=C/C(=O)OC [DMF, dimethyl fumarate]
FC Lrp8 (1440882_PM_at) (100DMF-vs-100MMF, 2 h): −1.69
FC Alb (1425260_PM_at) (100DMF-vs-100MMF, 7 h): 9.97
FC G6pc (1417880_PM_at) (100DMF-vs-100MMF, 7 h): −2.45
FC Abcc3 (1428988_PM_at) [1]: 2.02
FC Acsm5 (1437662_PM_at) [1]: 1.86
FC Akr1b8 (1448894_PM_at) [1]: 17.57
FC Akr1c12 (1450455_PM_s_at) [1]: 1.72
FC Akr1c19 (1455454_PM_at) [1]: 3.20
FC Blvrb (1451386_PM_at) [1]: 1.53
FC Cbr3 (1427912_PM_at) [1]: 25.95
FC Ces1e (1419510_PM_at) [1]: 2.70
FC Ces1f (1424266_PM_s_at) [1]: 6.17
FC Ces1g (1449486_PM_at) [1]: 7.40
FC G6pd2 (1422327_PM_s_at) [1]: 1.74
FC Gpx2 (1449279_PM_at) [1]: 1.67
FC Gsr (1421816_PM_at) [1]: 2.20
FC Gss (1441931_PM_x_at) [1]: 1.53
FC Gsta2 (1421040_PM_a_at) [1]: 5.65
FC Gsta2 (1421041_PM_s_at) [1]: 2.04
FC Gsta3 (1423436_PM_at) [1]: 10.36
FC Gsta3 (1423437_PM_at) [1]: 7.86
FC Gstm1 (1425627_PM_x_at) [1]: 4.63
FC Gstm1 (1448330_PM_at) [1]: 4.15
FC Gstm3 (1427473_PM_at) [1]: 2.03
FC Gstm3 (1427474_PM_s_at) [1]: 1.57
FC Gstm4 (1424835_PM_at) [1]: 5.03
FC Gstm6 (1422072_PM_a_at) [1]: 1.95
FC Nqo1 (1423627_PM_at) [1]: 2.30
FC Pir (1429001_PM_at) [1]: 3.79
FC Setd4 (1425239_PM_at) [1]: 1.66
FC Setd4 (1460373_PM_a_at) [1]: 1.52
FC Slc5a4b (1422757_PM_at) [1]: 2.21
FC Ugt2b5 (1419622_PM_at) [1]: 4.92
FC Ugt2b35 (1439624_PM_at) [1]: 2.37
FC Ugt2b36 (1455595_PM_at) [1]: 2.94
Number of genes, DMF Only / MMF Only (Jejunum): 9
Akr1c13 (1418672_PM_at) differential expression (Jejunum, 2 hr): 1.62
Areg (1421134_PM_at) differential expression (Jejunum, 2 hr): 3.58
B3galt5 (1428397_PM_at) differential expression (Jejunum, 2 hr): −2.77
Cbr1 (1460196_PM_at) differential expression (Jejunum, 2 hr): 1.55
Ces1e (1419510_PM_at) differential expression (Jejunum, 2 hr): 1.85
Dnase2a (1430135_PM_at) differential expression (Jejunum, 2 hr): 1.77
Dppa5a (1416552_PM_at) differential expression (Jejunum, 2 hr): 3.07
Dusp4 (1428834_PM_at) differential expression (Jejunum, 2 hr): 1.51
Entpd5 (1433763_PM_at) differential expression (Jejunum, 2 hr): 1.53
Ereg (1419431_PM_at) differential expression (Jejunum, 2 hr): 2.50
Ero1l (1419030_PM_at) differential expression (Jejunum, 2 hr): 1.92
Esd (1441604_PM_at) differential expression (Jejunum, 2 hr): 1.71
Fam13a (1456611_PM_at) differential expression (Jejunum, 2 hr): 1.54
Gclc (1424296_PM_at) differential expression (Jejunum, 2 hr): 4.25
Gsr (1421816_PM_at) differential expression (Jejunum, 2 hr): 2.23
Gss (1441931_PM_x_at) differential expression (Jejunum, 2 hr): 1.95
Gsta3 (1423436_PM_at) differential expression (Jejunum, 2 hr): 4.03
Gsta4 (1416368_PM_at) differential expression (Jejunum, 2 hr): 1.72
Gstm1 (1416416_PM_x_at) differential expression (Jejunum, 2 hr): 2.30
Mafg (1448916_PM_at) differential expression (Jejunum, 2 hr): 2.20
Nos2 (1420393_PM_at) differential expression (Jejunum, 2 hr): −2.39
Nqo1 (1423627_PM_at) differential expression (Jejunum, 2 hr): 2.16
Osgin1 (1424022_PM_at) differential expression (Jejunum, 2 hr): 2.08
Pgm2 (1437240_PM_at) differential expression (Jejunum, 2 hr): 2.15
Prss8 (1418320_PM_at) differential expression (Jejunum, 2 hr): 2.60
Ptk6 (1442923_PM_at) differential expression (Jejunum, 2 hr): −2.42
Setd4 (1435405_PM_at) differential expression (Jejunum, 2 hr): 1.91
Slc35e3 (1428805_PM_at) differential expression (Jejunum, 2 hr): 1.53
Slc40a1 (1417061_PM_at) differential expression (Jejunum, 2 hr): 2.33
Srr (1453421_PM_at) differential expression (Jejunum, 2 hr): 1.99
Srxn1 (1425351_PM_at) differential expression (Jejunum, 2 hr): 1.71
Tifa (1426501_PM_a_at) differential expression (Jejunum, 2 hr): −2.43
Tox3 (1436600_PM_at) differential expression (Jejunum, 2 hr): 1.70
Tsku (1440230_PM_at) differential expression (Jejunum, 2 hr): 1.61
Ugt2b5 (1419622_PM_at) differential expression (Jejunum, 2 hr): 3.40
Ugt2b36 (1455595_PM_at) differential expression (Jejunum, 2 hr): 2.07
Unc5c1 (1429950_PM_at) differential expression (Jejunum, 2 hr): −1.53
Abcc3 (1428988_PM_at) differential expression (Jejunum, 7 hr): 1.88
Acsm5 (1437662_PM_at) differential expression (Jejunum, 7 hr): 1.60
Akr1c13 (1418672_PM_at) differential expression (Jejunum, 7 hr): 1.61
Cbr1 (1460196_PM_at) differential expression (Jejunum, 7 hr): 1.65
Ces1e (1419510_PM_at) differential expression (Jejunum, 7 hr): 2.10
Ddc (1426215_PM_at) differential expression (Jejunum, 7 hr): 1.74
G6pd2 /// G6pdx (1422327_PM_s_at) differential expression (Jejunum, 7 hr): 1.82
G6pdx (1448354_PM_at) differential expression (Jejunum, 7 hr): 1.54
Gclc (1424296_PM_at) differential expression (Jejunum, 7 hr): 2.06
Gm3776 /// Gsta1 /// Gsta2 (1421041_PM_s_at) differential expression (Jejunum, 7 hr): 1.72
Gsr (1421816_PM_at) differential expression (Jejunum, 7 hr): 2.83
Gss (1441931_PM_x_at) differential expression (Jejunum, 7 hr): 1.97
Gsta3 (1423436_PM_at) differential expression (Jejunum, 7 hr): 4.27
Gsta4 (1416368_PM_at) differential expression (Jejunum, 7 hr): 2.09
Gstm1 (1416416_PM_x_at) differential expression (Jejunum, 7 hr): 3.19
Gstm2 (1416411_PM_at) differential expression (Jejunum, 7 hr): 1.58
Gstm4 (1424835_PM_at) differential expression (Jejunum, 7 hr): 3.83
Gstm6 (1422072_PM_a_at) differential expression (Jejunum, 7 hr): 1.94
Htatip2 (1451814_PM_a_at) differential expression (Jejunum, 7 hr): 1.51
Nqo1 (1423627_PM_at) differential expression (Jejunum, 7 hr): 2.31
Pir (1429001_PM_at) differential expression (Jejunum, 7 hr): 3.79
Setd4 (1435405_PM_at) differential expression (Jejunum, 7 hr): 1.90
Slc5a4b (1422757_PM_at) differential expression (Jejunum, 7 hr): 1.67
Txnrd1 (1424487_PM_x_at) differential expression (Jejunum, 7 hr): 1.60
Ugt2b5 (1419622_PM_at) differential expression (Jejunum, 7 hr): 3.42
Ugt2b36 (1455595_PM_at) differential expression (Jejunum, 7 hr): 2.23
Abcc3 (1428988_PM_at) differential expression (Jejunum, 12 hr): 2.02
Acsm5 (1437662_PM_at) differential expression (Jejunum, 12 hr): 1.86
Akr1c12 /// Akr1c13 (1450455_PM_s_at) differential expression (Jejunum, 12 hr): 1.72
Aldh1a7 (1418601_PM_at) differential expression (Jejunum, 12 hr): 1.65
Blvrb (1451386_PM_at) differential expression (Jejunum, 12 hr): 1.53
Ces1e (1419510_PM_at) differential expression (Jejunum, 12 hr): 2.70
G6pd2 /// G6pdx (1422327_PM_s_at) differential expression (Jejunum, 12 hr): 1.74
Gm3776 /// Gsta1 /// Gsta2 (1421041_PM_s_at) differential expression (Jejunum, 12 hr): 2.04
Gpx2 (1449279_PM_at) differential expression (Jejunum, 12 hr): 1.67
Gsr (1421816_PM_at) differential expression (Jejunum, 12 hr): 2.20
Gss (1441931_PM_x_at) differential expression (Jejunum, 12 hr): 1.53
Gsta3 (1423436_PM_at) differential expression (Jejunum, 12 hr): 10.36
Gsta4 (1416368_PM_at) differential expression (Jejunum, 12 hr): 2.58
Gstm1 (1416416_PM_x_at) differential expression (Jejunum, 12 hr): 4.15
Gstm2 (1416411_PM_at) differential expression (Jejunum, 12 hr): 2.04
Gstm4 (1424835_PM_at) differential expression (Jejunum, 12 hr): 5.03
Gstm6 (1422072_PM_a_at) differential expression (Jejunum, 12 hr): 1.95
Nqo1 (1423627_PM_at) differential expression (Jejunum, 12 hr): 2.30
